Measurements reported in patent US12583818B2 (DAEGU-GYEONGBUK MEDICAL INNOVATION FOUNDATION, priority 2020, dated 2026).
Read-outs that look alike come from different tables or passages of the source.

Key:
Pin1 = target: T1, Pin1 (Homo sapiens, UniProt Q13526); assay: Evaluation of Pin1 enzyme inhibitory activity (Sensolyte Green Pin1 assay kit); type: biochemical
T1 construct: purchased Anaspec
Procedure, shortened: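 Pin1 activity was measured with a fluorogenic kit assay (Sensolyte Green) using substrate prepared at 1 μM and protein at 50 μg/ml, both pre-mix concentrations. Compound working solutions were 100, 10, 1 or 0.1 μM, and reactions ran 2 h at room temperature in the dark, read at 490/520 nm. Inhibition was graded A–D by concentration.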

[1] = tested on: A2780 cells (ovarian cancer cells); assay: Cell viability of A2780 cells (Cell-titer Glo); type: cell-based; details: Homo sapiens
Experimental: (§1) In order to confirm the inhibitory effect of the compound represented by formula 1 according to the present invention on the growth of MCF7, MCF7-SP, A2780 or A2780-SP cells, the following experiment was performed, and the results are shown in Tables 4 and 5 below.
In addition, A2780 cells (ovarian cancer cells) were plated in a 96-well plate at the density of 3000 viable cells per well, and cultured in RPMI-1640 medium supplemented with 10% FBS and 1% penicillin/streptomycin.
(§2) On the next day of culture, the cells were treated with the compound of Examples 57, and 69 to 144, followed by culture for 3 days. Cell viability was evaluated by Cell-titer Glo (Promega, WC, USA), and luciferase activity was detected using a Tecan plate reader (Biocompare, USA).

[2] = tested on: A2780-SP cells (ovarian cancer stem cells); assay: Sphere cell viability of A2780-SP cells (Cell-titer Glo); type: cell-based
Experimental: as §1
On the other hand, A2780-SP cells (ovarian cancer stem cells) were plated in an Ultra-Low Attachment round bottom 96-well plate (corning) at the density of 1,500 viable cells per well, and cultured in cancer stem cell medium. The cancer stem cell medium is composed of the neurobasal medium supplemented with 20 ng/ml of bFGF, 10 ng/ml of EGF, […] of amphotericin B, HEPES, Glutamax and B27.
as §2, with “for 8” for “for 3”, “days. The medium containing the compound was added thereto once again on the 4th day. Sphere cell” for “days. Cell”

[3] = Table 2, read-out: concentration at which Pin1 inhibitory activity was exhibited
[4] = concentration at which the Pin1 enzyme activity is inhibited, 2 hours at room temperature, fluorescence 490 nm/520 nm, read-out: Pin 1 inhibition
[5] = 72 h, cell viability, culture for 3 days, read-out: A2780
[6] = 192 h, sphere cell viability, culture for 8 days, read-out: A2780-SP
[7] = Table 5, read-out: the concentration (second list of b710, cell line not named; matches A2780-SP column)
[8] = A2780, Table 5, read-out: A2780 cell concentration

T1 sequence (Q13526 whole entry): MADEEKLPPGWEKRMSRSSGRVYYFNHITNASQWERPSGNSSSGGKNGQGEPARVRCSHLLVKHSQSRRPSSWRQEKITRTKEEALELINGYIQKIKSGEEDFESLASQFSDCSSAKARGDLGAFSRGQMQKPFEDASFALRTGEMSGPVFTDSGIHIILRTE

| SMILES | IC50 (Pin1; [3]) | IC50 (Pin1; [4]) | IC50 [1, 5] | IC50 [2, 6] | IC50 [2, 7] | IC50 [1, 8] |
| --- | --- | --- | --- | --- | --- | --- |
| CN1CCN(CCCOc2ccc(S(=O)(=O)NCCc3c[nH]c4ccc(Cl)cc34)cc2)CC1 [Example 158, N-(2-(5-chloro-1H-indol-3-yl)ethyl)-4-(3-(4-methylpiperazin-1-yl)propoxy)benzenesulfonamide] | < 1 µM | < 1 µM | > 10 µM | < 1 µM | < 1 µM |  |
| O=S(=O)(NCC1CCc2[nH]c3ccc(Cl)cc3c2C1)c1ccc(OCCCN2CCNCC2)cc1 (centres unmarked) [Example 178, N-((6-chloro-2,3,4,9-tetrahydro-1H-carbazol-3-yl)methyl)-4-(3-(piperazin-1-yl)propoxy)benzenesulfonamide] | < 1 µM | < 1 µM | 1 to 10 µM | < 1 µM | < 1 µM | < 10 µM |
| O=S(=O)(NCCCc1c[nH]c2ccc(Cl)cc12)c1ccc(NCCCN2CCCCC2)cc1 [Example 114, N-(3-(5-chloro-1H-indol-3-yl)propyl)-4-((3-(piperidin-1-yl)propyl)amino)benzenesulfonamide] | < 1 µM | < 1 µM |  | 1 to 10 µM |  |  |
| O=S(=O)(NCCCc1c[nH]c2ccc(Cl)cc12)c1cccc(OCCCN2CCCCC2)c1 [Example 95, N-(3-(5-chloro-1H-indol-3-yl)propyl)-3-(3-(piperidin-1-yl)propoxy)benzenesulfonamide] |  | 1 to 10 µM | > 10 µM | 1 to 10 µM |  |  |
| CN1CCN(CCCOc2ccc(S(=O)(=O)NCC3CCc4[nH]c5ccc(F)cc5c4C3)cc2)CC1 (centres unmarked) [Example 187, N-((6-fluoro-2,3,4,9-tetrahydro-1H-carbazol-3-yl)methyl)-4-(3-(4-methylpiperazin-1-yl)propoxy)benzenesulfonamide] | < 1 µM | < 1 µM | > 10 µM | < 1 µM | < 1 µM |  |
| O=S(=O)(NCCCc1c[nH]c2ccc(Cl)cc12)c1cnc(NCCCN2CCNCC2)s1 [Example 146, N-(3-(5-chloro-1H-indole-3-yl)propyl)-2-((3-(piperazine-1-yl)propyl)amino)thiazole-5-sulfonamide] | < 1 µM | < 1 µM | > 10 µM | 1 to 10 µM |  |  |
| CN1CCN(CCCOc2ccc(S(=O)(=O)NCC3CCc4[nH]c5ccc(Cl)cc5c4C3)cc2)CC1 (centres unmarked) [Example 177, N-((6-chloro-2,3,4,9-tetrahydro-1H-carbazole-3-yl)methyl) 4-(3-(4-methylpiperazine-1-yl)propoxy)benzenesulfonamide] | < 1 µM | < 1 µM | 1 to 10 µM | < 1 µM | < 1 µM | < 10 µM |
| CN1CCN(CCCCc2ccc(S(=O)(=O)NCCCc3c[nH]c4ccc(Cl)cc34)cc2)CC1 [Example 112, N-(3-(5-chloro-1H-indol-3-yl)propyl)-4-(4-(4-methylpiperazin-1-yl)butyl)benzenesulfonamide] | < 1 µM | < 1 µM | > 10 µM | < 1 µM | < 1 µM |  |
| CN1CCN(CCCOc2ccc(S(=O)(=O)NCC3CCc4[nH]c5ccccc5c4C3)cc2)CC1 (centres unmarked) [Example 189, 4-(3-(4-methylpiperazin-1-yl)propoxy)-N-((2,3,4,9-tetrahydro-1H-carbazol-3-yl)methyl)benzenesulfonamide] | < 1 µM | < 1 µM | > 10 µM | < 1 µM | < 1 µM |  |
| C[C@@H]1CN(CCCOc2ccc(S(=O)(=O)NCCCc3c[nH]c4ccc(Cl)cc34)cc2)CCN1 [Example 108, (R)—N-(3-(5-chloro-1H-indol-3-yl)propyl)-4-(3-(3-methylpiperazin-1-yl)propoxy)benzenesulfonamide] | < 1 µM | < 1 µM | 1 to 10 µM | < 1 µM | < 1 µM | < 10 µM |
| CN1CCN(CCCOc2ccc(S(=O)(=O)NCCCc3c[nH]c4ncc(Cl)cc34)cc2)CC1 [Example 169, N-(3-(5-chloro-1H-pyrrolo[2,3-b]pyridin-3-yl)propyl)-4-(3-(4-methylpiperazin-1-yl)propoxy)benzenesulfonamide] | < 1 µM | < 1 µM | 1 to 10 µM | < 1 µM | < 1 µM | < 10 µM |
| CN1CCN(CCCc2ccc(S(=O)(=O)NCCCc3c[nH]c4ccc(Cl)cc34)cc2)CC1 [Example 186, N-(3-(5-chloro-1H-indol-3-yl)propyl)-4-(3-(4-methylpiperazin-1-yl)propyl)benzenesulfonamide] | < 1 µM | < 1 µM | > 10 µM | < 1 µM | < 1 µM |  |
| O=S(=O)(NCCCc1c[nH]c2c(Cl)cc(Cl)cc12)c1ccc(OCCCN2CCNCC2)cc1 [Example 164, N-(3-(5,7-dichloro-1H-indol-3-yl)propyl)-4-(3-(piperazin-1-yl)propoxy)benzenesulfonamide] | < 1 µM | < 1 µM | 1 to 10 µM | < 1 µM | < 1 µM | < 10 µM |
| Cc1[nH]c2ccc(Cl)cc2c1CCCNS(=O)(=O)c1ccc(OCCCN2CCNCC2)cc1 [Example 157, N-(3-(5-chloro-2-methyl-1H-indol-3-yl)propyl)-4-(3-(piperazin-1-yl)propoxy)benzenesulfonamide] |  | 1 to 10 µM | > 10 µM | < 1 µM | < 1 µM |  |
| O=S(=O)(NCCCc1c[nH]c2cc(Cl)c(Cl)cc12)c1ccc(OCCCN2CCNCC2)cc1 [Example 183, N-(3-(5,6-dichloro-1H-indol-3-yl)propyl)-4-(3-(piperazin-1-yl)propoxy)benzenesulfonamide] | < 1 µM | < 1 µM | > 10 µM | < 1 µM | < 1 µM |  |
| CN1CCN(CCCOc2ccc(C(=O)NCCCc3c[nH]c4ccc(Cl)cc34)cc2)CC1 [Example 143, N-(3-(5-chloro-1H-indole-3-yl)propyl)-4-(3-(4-methylpiperazine-1-yl)propoxy)benzamide] | < 1 µM | < 1 µM |  | 1 to 10 µM |  |  |
| O=S(=O)(NCCCc1c[nH]c2ccc(Cl)cc12)c1ccc(OCC2(CN3CCNCC3)CC2)cc1 [Example 117, N-(3-(5-chloro-1H-indol-3-yl)propyl)-4-((1-(piperazin-1-ylmethyl)cyclopropyl)methoxy)benzenesulfonamide] | < 1 µM | < 1 µM |  | 1 to 10 µM |  |  |
| CN1CCN(c2cc(Cl)nc(Nc3ccc(S(=O)(=O)NCCCc4c[nH]c5ccc(Cl)cc45)cc3)c2)CC1 [Example 140, N-(3-(5-chloro-1H-indol-3-yl)propyl)-4-((6-chloro-4-(4-methylpiperazin-1-yl)pyridin-2-yl)amino)benzenesulfonamide] | < 1 µM | < 1 µM |  | 1 to 10 µM |  |  |
| CN1CCN(c2cc(Nc3ccc(S(=O)(=O)NCCCc4c[nH]c5ccc(Cl)cc45)cc3)nc(N3CCN(C)CC3)c2)CC1 [Example 141, 4-((4,6-bis(4-methylpiperazin-1-yl)pyridin-2-yl)amino)-N-(3-(5-chloro-1H-indol-3-yl)propyl)benzenesulfonamide] | < 1 µM | < 1 µM |  | 1 to 10 µM |  |  |
| O=S(=O)(NCCCc1c[nH]c2ccc(Cl)cc12)c1ccc(NCCCN2CCNCC2)cc1 [Example 113, N-(3-(5-chloro-1H-indole-3-yl)propyl)-4-((3-(piperazine-1-yl)propyl)amino)benzenesulfonamide] | < 1 µM | < 1 µM |  | 1 to 10 µM |  |  |
| CN1CCC(CCCCc2ccc(S(=O)(=O)NCCCc3c[nH]c4ccc(Cl)cc34)cc2)CC1 [Example 115, N-(3-(5-chloro-1H-indol-3-yl)propyl)-4-(4-(1-methylpiperidin-4-yl)butyl)benzenesulfonamide] | < 1 µM | < 1 µM |  | < 1 µM | < 1 µM |  |
| O=S(=O)(NCCCc1c[nH]c2ccc(Cl)cc12)c1ccc(Oc2cccc(N3CCCNCC3)c2)cc1 [Example 129, 4-(3-(1,4-diazepan-1-yl)phenoxy)-N-(3-(5-chloro-1H-indol-3-yl)propyl)benzenesulfonamide] |  | 1 to 10 µM |  |  |  |  |
| CCCCOc1ccc(S(=O)(=O)NCCCc2cccc3ccccc23)cc1 [Example 19, 4-butoxy-N-(3-(naphthalen-1-yl)propyl)benzenesulfonamide] |  | > 100 µM |  |  |  |  |
